Some test systems named below: HCC-2998 colon; HCT-116 colon; IGROV1 ovarian; K-562 leukemia; MALME-3M melanoma; NCI-H226 lung.
Common to all, as to assay: NCI anticancer screen, dose series, 48 h

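The compound was tested at five concentrations on cells cultured in 96-well plates, with a 48-hour exposure period. TGI: concentration producing complete growth inhibition.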

In the case of `CN(C)Cc1cc(N=Nc2ccc(Cl)c(Cl)c2)ccc1O`, the TGI with HCC-2998 colon is 24.4 µM; with HCT-116 colon, 29.8 µM; with IGROV1 ovarian it was 15.9 µM; with K-562 leukemia, 14.1 µM; in the assay on MALME-3M melanoma, 29.6 µM; in the assay with NCI-H226 lung it was 40.7 µM.
As for `Cc1ccc2c3c1O[C@H]1c4nc5ccccc5cc4C[C@@]4(O)[C@@H](C2)N(CC2CC2)CC[C@]314`, the TGI in the assay on HCT-116 colon was 17.2 µM; in the assay on IGROV1 ovarian, > 100 µM; with K-562 leukemia, 23 µM; in the assay on MALME-3M melanoma it was 28.2 µM; in the assay with NCI-H226 lung, 29.5 µM.
In the case of `Cc1ccc2[nH]c(=O)c(-c3cnc(=O)[nH]n3)c(O)c2c1`, the TGI with HCT-116 colon, in the assay with IGROV1 ovarian, in the assay on K-562 leukemia, in the assay on MALME-3M melanoma and in the assay with NCI-H226 lung was > 100 µM throughout.
For the compound `N#CC(c1ccccc1)c1cccc2ccccc12` (stereo not drawn), the TGI with HCC-2998 colon was 81.8 µM; in the assay with HCT-116 colon, > 100 µM; in the assay with IGROV1 ovarian, > 100 µM; in the assay with K-562 leukemia, > 100 µM; with MALME-3M melanoma it was 50.7 µM; with NCI-H226 lung, > 100 µM.
Take `CN(C)c1ccc(/C=C2\N=C(c3ccccc3)N(c3nc4c(Cl)cc(Cl)cc4s3)C2=O)cc1`: the TGI in the assay with HCC-2998 colon, in the assay with HCT-116 colon, with IGROV1 ovarian and in the assay with K-562 leukemia was > 100 µM in each case.
As for `CCn1c2c(c3c(C(=O)OC)c(O)ccc31)C(=O)c1ccccc1C2=O`, the TGI in the assay with HCC-2998 colon was 34.9 µM; in the assay with HCT-116 colon it was 26.5 µM; with IGROV1 ovarian, 15.3 µM; in the assay with K-562 leukemia it was > 100 µM; in the assay on MALME-3M melanoma, 35 µM; in the assay on NCI-H226 lung, 34 µM.
With `O=C1/C(=C/c2cccs2)N=C(c2ccccc2)N1C1Nc2cc3c(cc2S1)NC(N1C(=O)/C(=C/c2cccs2)N=C1c1ccccc1)S3` (stereo not drawn), the TGI was 43.3 µM in the assay on HCC-2998 colon; 56 µM in the assay on HCT-116 colon; > 100 µM with IGROV1 ovarian; > 100 µM with K-562 leukemia; 48.3 µM in the assay with NCI-H226 lung.
Take `CN(C)Cc1cc(C(=O)O)cc(CN(C)C)c1O`: the TGI in the assay with HCC-2998 colon, with HCT-116 colon, with IGROV1 ovarian, with K-562 leukemia, in the assay with MALME-3M melanoma and in the assay with NCI-H226 lung was > 100 µM each time.
Take `O=c1[nH]cnc2c1ncn2[C@H]1CO[C@@H](CO)[C@@H]1O`: the TGI with HCC-2998 colon, with HCT-116 colon, in the assay with IGROV1 ovarian, with K-562 leukemia, in the assay with MALME-3M melanoma and in the assay on NCI-H226 lung was > 100 µM each time.
As to `CC(C)n1c(=O)c2nn3c(=O)n(C(C)C)c(=O)c3nn2c1=O`, the TGI in the assay on HCC-2998 colon, in the assay with HCT-116 colon, with IGROV1 ovarian, in the assay with MALME-3M melanoma and with NCI-H226 lung was > 100 µM each time.
As to `CC(NC(=O)c1ccc(OP(=O)(OCC2=CC(=O)c3ccccc3C2=O)N(C)CCCCCl)cc1)c1ccc(OCC2CCCCC2)c(C(N)=O)c1` (stereo not drawn), the TGI in the assay on HCC-2998 colon worked out at 4.05 µM; in the assay with HCT-116 colon it was 27.5 µM; with IGROV1 ovarian, 21.6 µM; with K-562 leukemia it was 43.1 µM; in the assay with MALME-3M melanoma, 3.97 µM; in the assay with NCI-H226 lung it was 24.2 µM.
As for `COc1cccc(-c2cc(=O)c3cc(C)cnc3[nH]2)c1`, the TGI in the assay with HCC-2998 colon is 2.67 µM; with HCT-116 colon, > 40 µM; with IGROV1 ovarian, > 100 µM; in the assay on K-562 leukemia, > 100 µM; with MALME-3M melanoma it was > 100 µM; with NCI-H226 lung, 0.339 µM.
`COc1ccc(N=C/C=C/Nc2ccc(OC)cc2)cc1`: the TGI with HCC-2998 colon was found to be 22.1 µM; in the assay on HCT-116 colon, 11.8 µM; in the assay with IGROV1 ovarian, 25.1 µM; in the assay with K-562 leukemia, 31 µM; with MALME-3M melanoma it was 23.9 µM; in the assay on NCI-H226 lung, 32.6 µM.
As for `CC1=C(C#N)S(=O)(=O)c2c(oc(C)c2C)N1`, the TGI in the assay with HCC-2998 colon, with HCT-116 colon, in the assay with K-562 leukemia, in the assay on MALME-3M melanoma and with NCI-H226 lung was > 100 µM in each case.
As to `CN(C)c1ccc(C(c2ccc(N(C)C)cc2)c2ccc([N+](=O)[O-])cc2)cc1`, the TGI in the assay with HCC-2998 colon, with HCT-116 colon, in the assay on IGROV1 ovarian, with K-562 leukemia, in the assay on MALME-3M melanoma and in the assay on NCI-H226 lung was > 100 µM each time.
In the case of `COc1ccc2c(c1)CC[C@@H]1[C@@H]2CC[C@]2(C)/C(=N/OCCN3CCCCC3)CC[C@@H]12`, the TGI turned out to be 8.26 µM in the assay on HCC-2998 colon; 5.67 µM with HCT-116 colon; 5.6 µM in the assay with IGROV1 ovarian; 9.62 µM with K-562 leukemia; 4.89 µM with MALME-3M melanoma; 18.7 µM with NCI-H226 lung.
For the compound `COC(=O)/C=C1/OC(c2ccccc2)=C(Cl)C1=O`, the TGI in the assay on HCC-2998 colon was 38.9 µM; in the assay on HCT-116 colon it was 26.3 µM; in the assay with IGROV1 ovarian it was 55.8 µM; in the assay on K-562 leukemia, 25.9 µM; in the assay on MALME-3M melanoma, 36 µM; with NCI-H226 lung it was > 84.6 µM.
As to `Cc1nc2ccccc2n1CCc1nc2ccccc2s1`, the TGI in the assay with HCC-2998 colon is > 100 µM; in the assay on HCT-116 colon, > 100 µM; in the assay on IGROV1 ovarian, > 100 µM; with K-562 leukemia, > 100 µM; in the assay on MALME-3M melanoma, > 100 µM; in the assay with NCI-H226 lung, 42.9 µM.
For the compound `COc1ccc(CN=CN/C(C#N)=C(\N)C#N)cc1OC`, the TGI in the assay on HCC-2998 colon, in the assay on HCT-116 colon, in the assay on IGROV1 ovarian, in the assay on K-562 leukemia, in the assay with MALME-3M melanoma and with NCI-H226 lung was > 100 µM in each case.
In the case of `CC(=O)C(=C(I)I)c1ccccc1`, the TGI with HCC-2998 colon is 72 µM; in the assay on HCT-116 colon, 29.4 µM; in the assay on IGROV1 ovarian it was 54.7 µM; in the assay with K-562 leukemia, 53.5 µM; with MALME-3M melanoma it was 25.6 µM; in the assay with NCI-H226 lung, 27.3 µM.

Source of the values: PubChem BioAssay (NCI).
